Data published in publication PMC10287695, “Non-covalent inhibitors of thioredoxin glutathione reductase with schistosomicidal activity in vivo” (Nature Communications, 2023).
Values joined by “and” are separate entries in the source; they are usually repeats but may differ in a detail not shown here. Equal entries are not always repeated. Where two headings read alike, the source gives them in different places. Marks after values point to notes of the source that are not given here.

Tests used:
PfTrxR = biological target: T1, PfTrxR (Plasmodium falciparum, UniProt Q25861); test: P. falciparum TrxR enzyme inhibition; assay type: biochemical
T1 construct: 6-His (N); made in house; host or cells: E. coli BL21 (DE3)
T1 sequence (Q25861 1-541): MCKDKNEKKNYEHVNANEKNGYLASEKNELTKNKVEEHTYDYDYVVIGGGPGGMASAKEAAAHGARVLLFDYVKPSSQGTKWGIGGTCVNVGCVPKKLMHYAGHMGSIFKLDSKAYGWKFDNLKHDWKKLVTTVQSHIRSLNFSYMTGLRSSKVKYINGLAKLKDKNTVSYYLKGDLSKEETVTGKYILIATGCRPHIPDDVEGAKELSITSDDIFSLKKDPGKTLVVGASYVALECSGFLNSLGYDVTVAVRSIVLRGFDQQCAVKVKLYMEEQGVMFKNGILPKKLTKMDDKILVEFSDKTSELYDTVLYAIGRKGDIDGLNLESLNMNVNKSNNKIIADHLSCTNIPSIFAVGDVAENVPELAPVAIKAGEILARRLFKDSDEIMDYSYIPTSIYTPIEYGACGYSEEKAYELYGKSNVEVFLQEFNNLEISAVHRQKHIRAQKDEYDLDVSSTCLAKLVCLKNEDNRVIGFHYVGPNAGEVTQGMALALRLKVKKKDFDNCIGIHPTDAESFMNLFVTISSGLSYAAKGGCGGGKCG

TGR [1] = biological target: T2, TGR (Schistosoma mansoni, UniProt Q962Y6); test: Reversibility by jump dilution; assay type: biochemical; conditions: for % Activity (ID list), D0 / % Inhibition (ID list), D0: D0: diluted 1:100, activity determined immediately; for % Activity (ID list), D0 / % Activity (ID list), D60 / % Inhibition (ID list), D60 / % Activity (ID list) / % Inhibition (ID list) / % Inhibition (ID list), D0: list for plotting; for % Activity (ID list), D60 / % Inhibition (ID list), D60: D60: diluted 1:100, activity determined after 60 min; for Inhibitor (rate), 0 min / % Activity, 0 min: [0, D0]: 15 min preincubation inhibitor + TGR + NADPH, diluted 1:100, then activity determined immediately; for Inhibitor (rate), 0 min / Inhibitor (rate), 60 min / Inhibitor (rate), -15: raw rate; for % Activity, 0 min / % Activity, 60 min / % Activity, -15: relative to DMSO; for Inhibitor (rate), 60 min / % Activity, 60 min: [60, D60]: 15 min preincubation inhibitor + TGR + NADPH, diluted 1:100, then activity determined after 60 min; for Inhibitor (rate), -15 / % Activity, -15: [-15]: 15 min preincubation inhibitor + TGR + NADPH, then activity determined, replicates; for % Activity (ID list) / % Inhibition (ID list): before dilution (-15)
T2 construct: made in house
T2 sequence (Q962Y6 1-598): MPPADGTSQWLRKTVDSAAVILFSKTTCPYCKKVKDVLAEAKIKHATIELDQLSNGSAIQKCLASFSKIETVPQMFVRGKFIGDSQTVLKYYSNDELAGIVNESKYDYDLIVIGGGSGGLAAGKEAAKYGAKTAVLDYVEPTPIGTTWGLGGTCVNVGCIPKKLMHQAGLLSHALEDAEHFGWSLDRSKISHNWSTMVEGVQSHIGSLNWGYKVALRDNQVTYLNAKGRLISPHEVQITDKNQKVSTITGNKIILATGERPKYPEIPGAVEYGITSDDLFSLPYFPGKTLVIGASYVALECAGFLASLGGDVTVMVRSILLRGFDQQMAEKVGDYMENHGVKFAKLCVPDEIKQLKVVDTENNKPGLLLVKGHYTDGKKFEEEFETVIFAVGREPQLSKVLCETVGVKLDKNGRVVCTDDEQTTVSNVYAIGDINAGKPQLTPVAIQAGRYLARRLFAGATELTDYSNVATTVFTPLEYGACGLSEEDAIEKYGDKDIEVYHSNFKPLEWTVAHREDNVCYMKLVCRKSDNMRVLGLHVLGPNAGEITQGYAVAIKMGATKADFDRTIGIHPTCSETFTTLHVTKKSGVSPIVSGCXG
Method: A reaction of 370 nM TGR, 100 µM NADPH, and 250 µM inhibitor was incubated for 15 min at room temperature. A 100x dilution of the reaction was made and the activity was determined immediately and after 60 min.

TGR [2] = biological target: T2, TGR; test: Time dependence of inhibition; assay type: biochemical; parameters: avg % inhib, 0.5 hr / avg % inhib, 1 hr / avg % inhib, 2 hr / avg % inhib, 3 hr / avg % inhib, 6 hr / avg % inhib, 24 hr: tested at 50 µM; conditions: for TGR activity relative to dmso, time 0 / TGR activity relative to dmso, time 5 / TGR activity relative to dmso, time 10 / TGR activity relative to dmso, time 15 / TGR activity relative to dmso, time 30: panel c; for TGR activity relative to dmso, time 0: time 0 (time unit not given); for TGR activity relative to dmso, time 5: time 5 (time unit not given); for TGR activity relative to dmso, time 10: time 10 (time unit not given); for TGR activity relative to dmso, time 15: time 15 (time unit not given); for TGR activity relative to dmso, time 30: time 30 (time unit not given)
Method: TGR was incubated at room temperature (up to 6 h) and at 4 °C for 6 to 24 h with 50 µM inhibitor and 100 µM NADPH for the indicated times. Then DTNB (3 mM) and NADPH (100 µM) were added, and the reaction was monitored at A412 for 5 min. The assay was done in triplicate.

[3] = tested on: S. mansoni juvenile worms (21 days); test: Schistosomicidal activity ex vivo, juvenile worms (21 days); assay type: cell-based; conditions: for viability at 5 µM / viability at 15 µM / viability at 30 µM: Schistosoma mansoni, 23 day S. mansoni worms, 48 HR; for viability at 5 µM: Conc. 5 µM; for viability at 15 µM: Conc. 15 µM; for viability at 30 µM: Conc. 30 µM; for LD50 ex vivo S. mansoni 21 days: juvenile worms, 48 h exposure
Method: (§1) Three-week old, female Swiss-Webster mice obtained from the Charles River were housed in the Comparative Research Center of Rush University Medical Center. Mice were infected by percutaneous tail exposure to about 200 S. mansoni or 50 S. japonicum cercaria for adult worms and about 1000 cercaria for juvenile S. mansoni worms through natural transdermal penetration of the cercariae for 1 h[81].
(§2) DMSO formulated compounds were diluted with phenol red free M199 medium or RPMI medium for NTS or juvenile and adult worms, respectively, at <1% DMSO final concentrations. NTS, juvenile and adult worms from overnight cultures were tested against compounds in triplicate. Controls were treated with DMSO alone or 5 µM AF as a positive control in appropriate medium. […] Schistosome viabilities in the presence of the compounds were assessed using this formula: % Viability = Averages of Test / Averages of DMSO Control x 100.

S. japonicum adult worms = test: Schistosomicidal activity ex vivo, S. japonicum adult worms; assay type: cell-based; conditions: for LD50 ex vivo S. japonicum adult: 48 h exposure; for viability at 5 µM / viability at 15 µM / viability at 30 µM: Schistosoma japonicum, S. japonicum adult worms, 48 hr; for viability at 5 µM: Conc. 5 µM; for viability at 15 µM: Conc. 15 µM; for viability at 30 µM: Conc. 30 µM
Method: as §1, §2

Compound | inhibition at 10 µM (PfTrxR) | inhibition at 25 µM (PfTrxR) | inhibition at 50 µM (PfTrxR) | % Activity (ID list), D0 (TGR [1]) | % Activity (ID list), D60 (TGR [1]) | % Inhibition (ID list), D60 (TGR [1]) | Inhibitor (rate), 0 min (TGR [1]) | % Activity, 0 min (TGR [1]) | Inhibitor (rate), 60 min (TGR [1]) | % Activity, 60 min (TGR [1]) | Inhibitor (rate), -15 (TGR [1]) | % Activity, -15 (TGR [1]) | % Activity (ID list) (TGR [1]) | % Inhibition (ID list) (TGR [1]) | viability at 5 µM [3] | viability at 15 µM [3] | viability at 30 µM [3] | LD50 ex vivo S. mansoni 21 days [3] | LD50 ex vivo S. japonicum adult (S. japonicum adult worms) | % Inhibition (ID list), D0 (TGR [1]) | also measured
Cc1oc(C2CCCCC2)nc1CN[C@@H]1C[C@@H]2C[C@H]([C@H]1C)C2(C)C [Compound 4] | 1.8% | 4.57% | 18.1% | 102.5% and 102.9% and 117.3% | 106.3% | -15.2% and -8.7% and -6.3% | 0.04729 and 0.04838 and 0.05087 | 102.47% and 102.936% and 117.347% | 0.04596 and 0.04643 and 0.04838 | 106.315% and 104.173% and 103.664% | 0.01214 and 0.0123 and 0.01219 | 35.2293% and 34.0532% and 34.3671% | 35.2% and 34.1% and 34.4% | 64.8% and 65.9% and 65.6% | 65.7% | 45.3% | 27.7% | 14.2 ± 2.13 µM | 27.1 ± 1.75 µM | – | inhibition at 50 µM (PfTrxR; read-out: PfTrxR % inhibition at 50 µM): 18%; rate, 0.5 hr (TGR [2]; panel d Time Dependence, 0.5 hr): 0.06468 and 0.06599 and 0.06659; avg % inhib, 0.5 hr (TGR [2]; panel d Time Dependence, 0.5 hr, average): 18.4758%; % inhib, 0.5 hr (TGR [2]; panel d Time Dependence, 0.5 hr, replicates): 18.6722% and 19.1992% and 17.556%; rate, 1 hr (TGR [2]; panel d Time Dependence, 1 hr): 0.05061 and 0.05195 and 0.05284; avg % inhib, 1 hr (TGR [2]; panel d Time Dependence, 1 hr, average): 30.1534%; % inhib, 1 hr (TGR [2]; panel d Time Dependence, 1 hr, replicates): 31.2738% and 29.387% and 29.7994%; rate, 2 hr (TGR [2]; panel d Time Dependence, 2 hr): 0.03578 and 0.03672 and 0.03844; avg % inhib, 2 hr (TGR [2]; panel d Time Dependence, 2 hr, average): 45.3087%; % inhib, 2 hr (TGR [2]; panel d Time Dependence, 2 hr, replicates): 46.082% and 46.1584% and 43.6859%; rate, 3 hr (TGR [2]; panel d Time Dependence, 3 hr): 0.02569 and 0.02601 and 0.02662; avg % inhib, 3 hr (TGR [2]; panel d Time Dependence, 3 hr, average): 55.4006%; % inhib, 3 hr (TGR [2]; panel d Time Dependence, 3 hr, replicates): 55.9121% and 55.5156% and 54.774%; rate, 6 hr (TGR [2]; panel d Time Dependence, 6 hr): 0.01404 and 0.01371; avg % inhib, 6 hr (TGR [2]; panel d Time Dependence, 6 hr, average): 70.958%; % inhib, 6 hr (TGR [2]; panel d Time Dependence, 6 hr, replicates): 70.2542% and 71.6618%; rate, 24 hr (TGR [2]; panel d Time Dependence, 24 hr): 0.004212 and 0.004652 and 0.005413; avg % inhib, 24 hr (TGR [2]; panel d Time Dependence, 24 hr, average): 87.319%; % inhib, 24 hr (TGR [2]; panel d Time Dependence, 24 hr, replicates): 88.741% and 87.5248% and 85.6913%
Cc1oc(C2CCCCC2)nc1C(=O)N[C@@H]1C[C@@H]2C[C@H]([C@H]1C)C2(C)C [Compound 7] | -0.315% | 4.13% | 10.8% | 98.5% and 102.6% and 100.0% | 100.2% and 98.4% and 96.1% | -0.17% and 1.6% and 3.9% | 0.04944 and 0.05279 | 98.4664% and 102.604% | 0.04706 and 0.04925 and 0.04684 | 100.17% and 98.4213% and 96.1018% | 0.001091 and 8.088e-5 and -1.437e-5 | 2.42% and 0.1757% | 2.4% and 0.2% and -0.3% | 97.6% and 99.8% and 100.3% | 77.6% | 63.5% | 58.7% | >30^a µM | 26.8 ± 1.62 µM | 1.5% and -2.6% | TGR activity relative to dmso, time 0 (TGR [2]; replicates): 10.9848 and 15.3969 and 9.648; TGR activity relative to dmso, time 5 (TGR [2]; replicates): 3.59 and 2.532 and 3.143; TGR activity relative to dmso, time 10 (TGR [2]; replicates): 6.629 and 6.846 and 6.371; TGR activity relative to dmso, time 15 (TGR [2]; replicates): 7.462 and 7.906 and 7.375; TGR activity relative to dmso, time 30 (TGR [2]; replicates): 9.0362 and 7.137 and 8.678; viability at 5 µM (S. japonicum adult worms): 89%; viability at 15 µM (S. japonicum adult worms): 71.1%; viability at 30 µM (S. japonicum adult worms): 39.8%
C[C@@H]1[C@H]2C[C@@H](C[C@H]1NCc1nc3ccccc3n1C1CCCCCC1)C2(C)C [Compound 8] | -0.482% | -0.643% | -0.523% | 90.8% and 93.4% and 92.5% | 93.9% and 90.9% and 93.8% | 6.1% and 9.1% and 6.2% | 0.05404 and 0.05709 and 0.05725 | 90.8083% and 93.3911% and 92.5327% | 0.05102 and 0.05246 and 0.05311 | 93.9422% and 90.9343% and 93.8339% | 0.005946 and 0.01664 and 0.01823 | 12.3643% and 34.0704% and 37.3107% | – | 77.7% and 75.9% and 68.7% | 83.5% | 66% | 57.2% | >30^a µM | 25.8 ± 1.87 µM | 9.2% and 6.6% and 7.5% | TGR activity relative to dmso, time 0 (TGR [2]; replicates): 81.9258 and 91.2824 and 94.0371; TGR activity relative to dmso, time 5 (TGR [2]; replicates): 16.4661 and 22.6942 and 32.7859; TGR activity relative to dmso, time 10 (TGR [2]; replicates): 10.3137 and 9.575 and 9.146; TGR activity relative to dmso, time 15 (TGR [2]; replicates): 4.106 and 4.258 and 6.77; TGR activity relative to dmso, time 30 (TGR [2]; replicates): 0.4436 and 0.7059 and 0.3756; viability at 5 µM (S. japonicum adult worms): 70.6%; viability at 15 µM (S. japonicum adult worms): 60.8%; viability at 30 µM (S. japonicum adult worms): 43.4%
